The subject of assay [1] is LOC expression in mIDH1 (IDH1 R132H/WT) LN18 cells. The assay can be described thus: qPCR of LOC expression in mIDH1 cells. The class given is cell-based, human. The source says: FIG. 6: LOC: DHX15 serves as a targetable vulnerability in wtIDH1 high-grade glioma. A) LOC expression in different IDH mutation status across different WHO grade gliomas based on RNA-seq data from CGGA. B) qPCR of LOC expression in wtIDH1 LN18 cells or mIDH1 clones. Those clones were generated by base editing. C) qPCR of LOC expression in wtIDH1 and mIDH1 LN18 cells treated with or without mIDH1 inhibitor AGI-5198. D) qPCR of LOC expression in wtIDH1 and mIDH1 LN18 cells with or without DMNT inhibitor 5-Azac treatment. E) Protein lysates from wtIDH1 and mIDH1 LN18 cells were analyzed for levels of phosphorylated and total p65 and p38 proteins by western blot. F) wtIDH1 and mIDH1 LN18 cells were transfected with empty vector (EV) or expression vectors of LOC or mutant version of LOC (LOC-M2). After 48 hours cells were harvested and endogenous DHX15 or p65 was immunoprecipitated with antibody against DHX15 or p65. IP samples were analyzed by subsequent immunoblot for the indicated proteins at indicated time points. G-H) Cell viability assay of wtIDH1 G) and mIDH1 LN18 cells H) treated with or without DHX inhibitor. I) Fluorescence imaging of wtIDH1 and mIDH1 GBM orthotopic xenograft models with or without DHX inhibitor treatment. J) Quantification of tumor signal intensity obtained from I). […]

A further assay relates to GBM cells. The assay can be described thus: Cell viability, RNA helicase inhibitors alone or with TMZ (FIG. 9). The class given is cell-based. The following applies: for synergy on cell viability: combination therapy with TMZ; for cell viability: single agent.

Consider `Cc1ccccc1C(C(=O)NC1CCCCC1)N(C(=O)Cn1ccnc1C)c1cccc(F)c1` (stereo not drawn) [selective mutant IDH1^R132H inhibitor], for which the LOC expression entry in assay [1] (IDH1 R132H/WT cells, mIDH1 inhibitor treatment, FIG. 6C) is recorded as “restored the LOC expression”. Turning to `Nc1ncn([C@@H]2O[C@H](CO)[C@@H](O)[C@H]2O)c(=O)n1` [5-AzaC, 5-Azacytidine], the “IDH1 mutation induced hypermethylation phenotype (diminished LOC expression)” value in assay [1] (DNA methyltransferase inhibitor treatment, FIG. 6D) was “abrogate this hypermethylation phenotype”. For the compound `COc1ccc([C@@]23Oc4cc(OC)cc(OC)c4[C@]2(O)[C@H](O)[C@H](C(=O)N(C)C)[C@H]3c2ccccc2)cc1` [Rocaglamide], in the assay with GBM cells, the “synergy on cell viability” value is recorded as “does not show synergistic inhibition of cell viability” and the cell viability result is given as “inhibition of cell viability”. In the case of RK-33, in the assay with GBM cells, the “synergy on cell viability” value was “does not show synergistic inhibition of cell viability” and the cell viability entry was “inhibition of cell viability”.

The values above are taken from patent publication US20250340946A1, “METHOD OF PROGNOSING AND TREATING GLIOMA” (Agency for Science, Technology and Research, priority 2022, published 2025).
